Assay type in all cases: cell-based
One experiment has as its system mouse sarcoma 180. The experiment is described as follows: In vitro anti-proliferative activity against mouse tumor cell lines, Test Method 2 (sarcoma 180). Conditions: Sarcoma 180, 48 hours, 37° C. As to the method: (§1) In vitro anti-proliferative activity against mouse tumor cell lines
(§2) 1. Mouse lymphoma cell line P388 or mouse sarcoma 180 is suspended in RPMI1640 medium supplemented with 10% fetal bovine serum and 2 μM 2-hydroxyethyl disulfide to a concentration of 10^5 cells/ml. Test compounds are serially diluted with the same medium.
(§3) 2. 0.5 ml of the cell suspension thus obtained is admixed with 0.5 ml of the medium or the test compound solution, and the mixture is incubated in a 5% CO2 -incubator at 37° C. for 48 hours. The incubation is carried out in glass culture tubes.
(§4) 3. At the end of incubation, the number of the cells in each tube is counted with a Coulter counter (Model ZB, Coulter Electronics), and the growth inhibition percent (%) is calculated from the same equation as in Test Method 1.
(§5) 4. The IC50 value is obtained as in Test Method I.

Experiment [1] deals with L1210 mouse leukemia cells. Kind of experiment: In vitro anti-proliferative activity against mouse tumor cell lines, Test Method 1 (L1210). The conditions noted are these: L1210, 48 hours, 37° C. As to the method: as §1
1. L1210 mouse leukemia cells are cultivated in RPMI1640 medium supplemented with 10% fetal bovine serum, and the resultant cells are diluted with the same medium in the logarithmic growth phase to a concentration of 1.6×10^5 cells/ml.
2. To test tubes each containing 0.9 ml of the above obtained diluted cell suspension is added 0.1 ml each of test solutions serially diluted with a culture medium or phosphate-buffered saline (PBS), and the mixture is incubated in a 2% CO2 -incubator at 37° C. for 48 hours.
3. After incubation, the number of the cells in each tube is counted with a Coulter counter (Model ZB, Coulter Electronics), and the growth inhibition percent (%) of the cells at each concentration of a test compound is calculated from the following equation: [formula] Tx: Number of the cells in a test tube containing a test compound as counted upon completion of the incubation (cells/ml)
Cx: Number of the cells in a test tube containing no test compound as counted upon completion of the incubation (cells/ml)
Co: Number of the cells in a test tube containing no test compound as counted at the initiation of the incubation (cells/ml)
4. The concentration of the test compound, which causes cell growth inhibition by 50%, is determined by the graph showing the relationship between the growth inhibition percent and the concentration of the test compound, and is defined as 50% inhibitory concentration (IC50).

Experiment [2] concerns Mouse lymphoma cell line P388. Kind of experiment: In vitro anti-proliferative activity against mouse tumor cell lines, Test Method 2 (P388). Conditions: P388, 48 hours, 37° C. As to the method:
as §1, §2, §3, §4, §5

In brackets after ≈: the same amount, converted by molar mass.

As a reminder, the IC50 is the concentration needed to halve the response being measured. A higher IC50 goes with a need for much substance. For the compound `C#Cc1[nH]cnc1C#N` [5-ethynylimidazole-4-carbonitrile], the half-inhibitory concentration (IC50) in the experiment with mouse sarcoma 180 was 9.92 µg/mL (≈ 84.7 µM); in experiment [1], 2.9 µg/mL (≈ 24.8 µM); in experiment [2], 14.1 µg/mL (≈ 120 µM). Consider `C#Cc1c(C#N)ncn1[C@@H]1O[C@H](CO)[C@@H](O)[C@H]1O` [5-ethynyl-1-β-D-ribofuranosylimidazole-4-carbonitrile], for which the 50% inhibitory concentration (IC50) in the experiment on mouse sarcoma 180 was 0.8 µg/mL (≈ 3.21 µM); in experiment [1], 1.9 µg/mL (≈ 7.62 µM); in experiment [2], 0.93 µg/mL (≈ 3.73 µM). `N#Cc1ncn([C@@H]2O[C@H](CO)[C@@H](O)[C@H]2O)c1C#CCCO` [R = [drawing 28]; A = CN; R^1 = CH2 CH2 OH, 5-(4-hydroxy-1-butyn-1yl)-1-β-D-ribofuranosylimidazole-4-carbonitrile] yielded an IC50 in experiment [1] of 3.3 µg/mL (≈ 11.3 µM). On to `NC(=O)c1ncn([C@@H]2O[C@H](CO)[C@@H](O)[C@H]2O)c1C#CCCO` [5-(4-hydroxy-1butyn-1-yl)-1β-D-ribofuranosylimidazole-4-carboxamide], for which, in experiment [1], the IC50 worked out at 1.28 µg/mL (≈ 4.11 µM). Still for that read-out and setting: to `N#Cc1ncn([C@@H]2O[C@H](CO)[C@@H](O)[C@H]2O)c1C#CCO` [R = [drawing 28]; A = CN; R^1 = CH2 OH, 5-(3-Hydroxy-1-propyn-1-yl)-1-β-D-ribofuranosylimidazole-4-carbonitrile] belongs 4.1 µg/mL (≈ 14.7 µM). Regarding `C#Cc1[nH]cnc1C(N)=O` [5-ethynylimidazole-4-carboxamide], the figures for the IC50 (in the experiment with mouse sarcoma 180; in experiment [1]; in experiment [2]) were 1.39 µg/mL (≈ 10.3 µM), 4 µg/mL (≈ 29.6 µM) and 4.37 µg/mL (≈ 32.3 µM), respectively.

Take `CCCC#Cc1c(C(N)=O)ncn1[C@@H]1O[C@H](CO)[C@@H](O)[C@H]1O` [R = [drawing 28]; A = CONH2; R^1 = C3, 5-(1-pentyn-1-yl)-1-β-D-ribofuranosylimidazole-4-carboxamide]: in experiment [1], the IC50 was 2.92 µg/mL (≈ 9.44 µM).

In experiment [1], `NC(=O)c1ncn([C@@H]2O[C@H](CO)[C@@H](O)[C@H]2O)c1C#CCO` [R = [drawing 28]; A = CONH2; R^1 = CH2 OH, 5-(3-Hydroxy-1-propyn-1-yl)-1-β-D-ribofuranosylimidazole-4-carboxamide] came in with a half-maximal inhibitory concentration (IC50) of 0.7 µg/mL (≈ 2.35 µM).
